Patent publication US20230340011A1 (Asteroid Therapeutics, priority 2022, published 2023)

Columns and labels:
SREBP-2 = SREBP-2 (Homo sapiens (Human), UniProt Q12772); assay: In vitro assay SREBP-2: PathHunter U2OS SREBP-2 Nuclear Translocation Cell Line, U18666A-stimulated; type: cell-based; details: PathHunter U2OS SREBP-2 nuclear translocation cells, U18666A 10 μM, overnight (16 hours)
LXRβ = LXRβ (Homo sapiens (Human), UniProt P55055); assay: In vitro assay LXRβ: PathHunter NHR CHO cells, LXRβ / Steroid Receptor Co-activator Peptide enzyme fragment complementation; type: cell-based; details: PathHunter NHR CHO cells, full-length human LXRβ and SRCP, chemiluminescent signal; read-out: LXRβ PPI
LXRβ, sequence (P55055 whole entry, the tested form may be a part): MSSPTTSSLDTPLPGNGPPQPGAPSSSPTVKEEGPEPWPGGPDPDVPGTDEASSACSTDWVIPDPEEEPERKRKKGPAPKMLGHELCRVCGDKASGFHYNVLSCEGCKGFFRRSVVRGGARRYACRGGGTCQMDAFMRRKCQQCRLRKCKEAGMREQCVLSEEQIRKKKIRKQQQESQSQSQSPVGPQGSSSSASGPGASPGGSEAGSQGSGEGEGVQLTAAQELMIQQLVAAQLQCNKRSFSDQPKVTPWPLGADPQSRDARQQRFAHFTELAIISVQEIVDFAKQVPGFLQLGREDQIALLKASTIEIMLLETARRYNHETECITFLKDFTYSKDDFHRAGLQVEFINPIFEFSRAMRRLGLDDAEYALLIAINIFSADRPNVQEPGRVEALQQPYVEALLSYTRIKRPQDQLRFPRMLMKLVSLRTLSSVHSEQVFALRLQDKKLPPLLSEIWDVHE
Outline: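 Co-activator recruitment measured by chemiluminescence after signal generation. The CHO line carries full-length human LXRβ tagged with ProLink and an SRCP–enzyme acceptor fusion in the nucleus; cells sat overnight at 37° C before testing, in charcoal-dextran filtered serum medium with 1% final vehicle.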

## C[C@@H]1CCN(C(=O)N2CCN(C(=O)CC[C@@H](C)[C@H]3CC[C@H]4[C@@H]5CC=C6C[C@@H](O)CC[C@]6(C)[C@H]5CC[C@]34C)CC2)C1 [Example 667, (R)-4-((3S,8S,9S,10R,13R,14S,17R)-3-hydroxy-10,13-dimethyl-2,3,4,7,8,9,10,11,12,13,14,15,16,17-tetradecahydro-1H-cyclopenta[a]phenanthren-17-yl)-1-(4-((R)-3-methylpyrrolidine-1-carbonyl)piperazin-1-yl)pentan-1-one]
SREBP-2
  IC50: < 0.25 µM
LXRβ
  EC50: > 10 µM

## C[C@H](COc1ccncc1)[C@H]1CC[C@H]2[C@@H]3CC=C4C[C@@H](O)CC[C@]4(C)[C@H]3CC[C@]12C [Example 181, (8S,9S,10R,13S,14S,17R)-10,13-dimethyl-17-((S)-1-(pyridin-4-yloxy)propan-2-yl)-2,3,4,7,8,9,10,11,12,13,14,15,16,17-tetradecahydro-1H-cyclopenta[a]phenanthren-3-ol]
SREBP-2
  IC50: 0.25 to 1 µM
LXRβ
  EC50: > 10 µM

## C=CCN1C[C@@H]2CCN(C(=O)CC[C@@H](C)[C@H]3CC[C@H]4[C@@H]5CC=C6C[C@@H](O)CC[C@]6(C)[C@H]5CC[C@]34C)[C@@H]2C1 [Example 139, (R)-1-((3aS,6aS)-5-allylhexahydropyrrolo[3,4-b]pyrrol-1(2H)-yl)-4-((3S,8S,9S,10R,13R,14S,17R)-3-hydroxy-10,13-dimethyl-2,3,4,7,8,9,10,11,12,13,14,15,16,17-tetradecahydro-1H-cyclopenta[a]phenanthren-17-yl)pentan-1-one]
SREBP-2
  IC50: 0.25 to 1 µM
LXRβ
  EC50: > 10 µM

## C[C@H](CCc1ncccc1Cl)[C@H]1CC[C@H]2[C@@H]3CC=C4C[C@@H](O)CC[C@]4(C)[C@H]3CC[C@]12C [Example 184, bis((1R,3aS,3bS,7S,9aR,9bS,11aR)-1-[(2R)-4-(3-chloropyridin-2-yl)butan-2-yl]-9a,11a-dimethyl-1H,2H,3H,3aH,3bH,4H,6H,7H,8H,9H,9aH,9bH,10H,11H,11aH-cyclopenta[a]phenanthren-7-ol)]
SREBP-2
  IC50: < 0.25 µM
LXRβ
  EC50: 1 to 10 µM

## COC(=O)N1CCC(N(C)C(=O)CC[C@@H](C)[C@H]2CC[C@H]3[C@@H]4CC=C5C[C@@H](O)CC[C@]5(C)[C@H]4CC[C@]23C)CC1 [Example 643, Methyl 4-[(4R)-4-[(1R,3aS,3bS,7S,9aR,9bS,11aR)-7-hydroxy-9a,11a-dimethyl-1H,2H,3H,3aH,3bH,4H,6H,7H,8H,9H,9aH,9bH,10H,11H,11aH-cyclopenta[a]phenanthren-1-yl]-N-methylpentanamido]piperidine-1-carboxylate]
SREBP-2
  IC50: < 0.25 µM
LXRβ
  EC50: > 10 µM

## COC(=O)N1CCN(C(=O)[C@@H](C)[C@H]2CC[C@H]3[C@@H]4CC=C5C[C@@H](O)CC[C@]5(C)[C@H]4CC[C@]23C)CC1 [Example 598, methyl 4-((S)-2-((3S,8S,9S,10R,13S,14S,17R)-3-hydroxy-10,13-dimethyl-2,3,4,7,8,9,10,11,12,13,14,15,16,17-tetradecahydro-1H-cyclopenta[a]phenanthren-17-yl)propanoyl)piperazine-1-carboxylate]
SREBP-2
  IC50: 1 to 10 µM
LXRβ
  EC50: > 10 µM

## C[C@H](CCC(=O)N1CCNC(=O)C1)[C@H]1CC[C@H]2[C@@H]3CC=C4C[C@@H](O)CC[C@]4(C)[C@H]3CC[C@]12C [Example 362, 4-[(4R)-4-[(1R,3aS,3bS,7S,9aR,9bS,11aR)-7-hydroxy-9a,11a-dimethyl-1H,2H,3H,3aH,3bH,4H,6H,7H,8H,9H,9aH,9bH,10H,11H,11aH-cyclopenta[a]phenanthren-1-yl]pentanoyl]piperazin-2-one]
SREBP-2
  IC50: 0.25 to 1 µM
LXRβ
  EC50: > 10 µM

## C[C@H](COc1cc(CO)ccn1)[C@H]1CC[C@H]2[C@@H]3CC=C4C[C@@H](O)CC[C@]4(C)[C@H]3CC[C@]12C [Example 258, (3S,8S,9S,10R,13S,14S,17R)-17-((S)-1-((4-(hydroxymethyl)pyridin-2-yl)oxy)propan-2-yl)-10,13-dimethyl-2,3,4,7,8,9,10,11,12,13,14,15,16,17-tetradecahydro-1H-cyclopenta[a]phenanthren-3-ol]
SREBP-2
  IC50: < 0.25 µM
LXRβ
  EC50: > 10 µM

## C[C@H](CCC(=O)N1CCC(NS(C)(=O)=O)CC1)[C@H]1CC[C@H]2[C@@H]3CC=C4C[C@@H](O)CC[C@]4(C)[C@H]3CC[C@]12C [Example 414, N-(1-((R)-4-((3S,8S,9S,10R,13R,14S,17R)-3-hydroxy-10,13-dimethyl-2,3,4,7,8,9,10,11,12,13,14,15,16,17-tetradecahydro-1H-cyclopenta[a]phenanthren-17-yl)pentanoyl)piperidin-4-yl)methanesulfonamide]
SREBP-2
  IC50: 0.25 to 1 µM
LXRβ
  EC50: > 10 µM

## C[C@H](CCC(=O)N1CCN(C(=O)c2cnccn2)[C@@H](C)C1)[C@H]1CC[C@H]2[C@@H]3CC=C4C[C@@H](O)CC[C@]4(C)[C@H]3CC[C@]12C [Example 568, (R)-4-((3S,8S,9S,10R,13R,14S,17R)-3-hydroxy-10,13-dimethyl-2,3,4,7,8,9,10,11,12,13,14,15,16,17-tetradecahydro-1H-cyclopenta[a]phenanthren-17-yl)-1-((S)-3-methyl-4-(pyrazine-2-carbonyl)piperazin-1-yl)pentan-1-one]
SREBP-2
  IC50: < 0.25 µM
LXRβ
  EC50: > 10 µM

## Cc1cccc(OC[C@@H](C)[C@H]2CC[C@H]3[C@@H]4CC=C5C[C@@H](O)CC[C@]5(C)[C@H]4CC[C@]23C)n1 [Example 264, (1R,3aS,3bS,7S,9aR,9bS,11aS)-9a,11a-dimethyl-1-[(2S)-1-[(6-methylpyridin-2-yl)oxy]propan-2-yl]-1H,2H,3H,3aH,3bH,4H,6H,7H,8H,9H,9aH,9bH,10H,11H,11aH-cyclopenta[a]phenanthren-7-ol]
SREBP-2
  IC50: 0.25 to 1 µM
LXRβ
  EC50: > 10 µM

## C[C@H](CCC(=O)N1CCC[C@H](O)C1)[C@H]1CC[C@H]2[C@@H]3CC=C4C[C@@H](O)CC[C@]4(C)[C@H]3CC[C@]12C [Example 103, (R)-4-((3S,8S,9S,10R,13R,14S,17R)-3-hydroxy-10,13-dimethyl-2,3,4,7,8,9,10,11,12,13,14,15,16,17-tetradecahydro-1H-cyclopenta[a]phenanthren-17-yl)-1-((S)-3-hydroxypiperidin-1-yl)pentan-1-one]
SREBP-2
  IC50: < 0.25 µM
LXRβ
  EC50: 0.25 to 1 µM

## COc1nccnc1N1CCN(C(=O)CC[C@@H](C)[C@H]2CC[C@H]3[C@@H]4CC=C5C[C@@H](O)CC[C@]5(C)[C@H]4CC[C@]23C)CC1 [Example 610, (R)-4-((3S,8S,9S,10R,13R,14S,17R)-3-hydroxy-10,13-dimethyl-2,3,4,7,8,9,10,11,12,13,14,15,16,17-tetradecahydro-1H-cyclopenta[a]phenanthren-17-yl)-1-(4-(3-methoxypyrazin-2-yl)piperazin-1-yl)pentan-1-one]
SREBP-2
  IC50: < 0.25 µM
LXRβ
  EC50: > 10 µM

## Cc1noc(N2CCN(C(=O)CC[C@@H](C)[C@H]3CC[C@H]4[C@@H]5CC=C6C[C@@H](O)CC[C@]6(C)[C@H]5CC[C@]34C)CC2)n1 [Example 495, (R)-4-((3S,8S,9S,10R,13R,14S,17R)-3-hydroxy-10,13-dimethyl-2,3,4,7,8,9,10,11,12,13,14,15,16,17-tetradecahydro-1H-cyclopenta[a]phenanthren-17-yl)-1-(4-(3-methyl-1,2,4-oxadiazol-5-yl)piperazin-1-yl)pentan-1-one]
SREBP-2
  IC50: < 0.25 µM
LXRβ
  EC50: > 10 µM
